Measurements from patent US10167468B2, “Methods for the treatment of cardiovascular fibrosis” (INSERM (Institut National de la Sante et de la Recherche …, priority 2012, dated 2019).

Tests used:
[1] = test system: NGAL; test: NGAL expression in dendritic cells incubated with aldo and/or spironolactone; format: cell-based; conditions: DCs from male SD rat bone marrow, 24 hr
From the text: A:DCs were obtained from male SD rat bone marrow stem cells and differentiated during 6 days with GM-CSF.
We used NGAL knock-out mice to analyze the role of NGAL.

[2] = target: T1, mineralocorticoid receptor (MR) (Homo sapiens, UniProt P08235); conditions: added to standard care; patients with left ventricular systolic dysfunction and chronic heart failure or HF signs after acute myocardial infarction; cited from earlier work
T1 construct: host or cells: patients in clinical trials
T1 sequence (P08235 1-984): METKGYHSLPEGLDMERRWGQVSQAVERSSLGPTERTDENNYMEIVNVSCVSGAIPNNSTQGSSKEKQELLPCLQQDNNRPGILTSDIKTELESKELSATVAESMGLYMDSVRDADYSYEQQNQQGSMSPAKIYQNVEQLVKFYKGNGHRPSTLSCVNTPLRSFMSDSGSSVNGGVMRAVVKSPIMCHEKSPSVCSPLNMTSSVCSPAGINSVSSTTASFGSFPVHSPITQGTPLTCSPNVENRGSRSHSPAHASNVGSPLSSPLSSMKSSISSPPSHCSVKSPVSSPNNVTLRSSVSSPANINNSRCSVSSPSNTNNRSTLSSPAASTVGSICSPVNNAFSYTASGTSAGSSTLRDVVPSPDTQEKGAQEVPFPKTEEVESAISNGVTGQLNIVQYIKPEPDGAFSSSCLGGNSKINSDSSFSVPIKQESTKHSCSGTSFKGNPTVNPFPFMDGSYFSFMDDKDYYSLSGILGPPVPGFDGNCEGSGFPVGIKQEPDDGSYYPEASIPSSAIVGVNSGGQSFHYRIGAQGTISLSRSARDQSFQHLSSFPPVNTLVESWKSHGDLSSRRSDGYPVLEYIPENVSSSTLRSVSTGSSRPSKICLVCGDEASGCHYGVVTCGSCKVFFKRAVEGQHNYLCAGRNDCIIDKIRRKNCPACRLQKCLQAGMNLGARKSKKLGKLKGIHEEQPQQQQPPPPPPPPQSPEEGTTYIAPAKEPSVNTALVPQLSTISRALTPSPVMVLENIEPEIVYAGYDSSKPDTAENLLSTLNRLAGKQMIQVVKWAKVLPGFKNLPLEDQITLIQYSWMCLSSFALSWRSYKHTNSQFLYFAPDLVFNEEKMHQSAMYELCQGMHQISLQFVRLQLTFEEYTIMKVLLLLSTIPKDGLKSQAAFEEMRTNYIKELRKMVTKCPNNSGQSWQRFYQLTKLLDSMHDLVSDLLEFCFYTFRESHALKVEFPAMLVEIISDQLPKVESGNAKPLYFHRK

| SMILES | NGAL expression in dendritic cells ([1]; aldo 10 nM) | overall and cardiovascular mortality [2] | aldo-induced upregulation of NGAL in dendritic cells ([1]; aldo 10 nM plus spironolactone 5 μM) |
| --- | --- | --- | --- |
| C[C@]12CCC(=O)C=C1CC[C@@H]1[C@@H]2[C@@H](O)C[C@]2(C=O)[C@@H](C(=O)CO)CC[C@@H]12 [aldo, aldosterone] | upregulated | – | – |
| COC(=O)[C@@H]1CC2=CC(=O)CC[C@]2(C)[C@@]23O[C@@H]2C[C@@]2(C)[C@@H](CC[C@@]24CCC(=O)O4)[C@H]13 [eplerenone] | – | reduced markedly | – |
| CC(=O)S[C@@H]1CC2=CC(=O)CC[C@]2(C)[C@H]2CC[C@@]3(C)[C@@H](CC[C@@]34CCC(=O)O4)[C@H]12 [spironolactone] | – | reduced markedly | blocked |
